This passage reports TGI results from PubChem BioAssay (NCI).

Among the test systems are ACHN renal; DU-145 prostate; EKVX NSCLC; HCT-15 colon; M14 melanoma; MALME-3M melanoma; SF-268 CNS; SF-539 CNS; U251 CNS; UO-31 renal.
What all share (experiment): NCI anticancer screen, dose series, 48 h

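Step 1: Grow cells in 96-well plates. Step 2: Expose to compound for 48 hours at 5 concentrations. Step 3: Interpolate endpoints linearly; if unreached, use highest concentration. The concentration for full growth arrest is given as TGI.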 Where only a bound is given, the exact number is not on record here.

With `COC(=O)c1c(C)nc(C)c(NO)c1-c1ccccc1C(F)(F)F`, the TGI in the assay with ACHN renal was 71.6 µM; in the assay with DU-145 prostate, more than 100 µM; in the assay with EKVX NSCLC it was more than 100 µM; in the assay on HCT-15 colon, 32.3 µM; in the assay with M14 melanoma, 39.5 µM; with MALME-3M melanoma, 32.8 µM. The TGI was more than 100 µM with SF-268 CNS, 38.6 µM in the assay with SF-539 CNS, more than 100 µM with U251 CNS and 74.2 µM with UO-31 renal.
For the compound `Cc1ccc(-c2n[nH]c(=O)n2/N=C\c2ccccc2)cc1`, the TGI in the assay with ACHN renal, in the assay with DU-145 prostate, in the assay on EKVX NSCLC, with HCT-15 colon, with M14 melanoma and in the assay on MALME-3M melanoma was more than 100 µM throughout. In addition, the TGI in the assay on SF-268 CNS is more than 89.1 µM; with SF-539 CNS it was more than 100 µM; with U251 CNS, more than 100 µM; in the assay on UO-31 renal, more than 100 µM.
Take `COc1ccc(-c2cc(C(O)C3CCCCN3)c3ccccc3n2)cc1` (stereo not given): the TGI in the assay on ACHN renal was 24.4 µM; in the assay on DU-145 prostate, 20.5 µM; in the assay with EKVX NSCLC, 20.2 µM; in the assay on HCT-15 colon it was 34.2 µM; in the assay on M14 melanoma it was 4.61 µM; in the assay with MALME-3M melanoma, 28.9 µM. Besides, the TGI is 27.7 µM in the assay with SF-268 CNS, 23.5 µM in the assay on SF-539 CNS, 14.5 µM with U251 CNS and 8.54 µM in the assay with UO-31 renal.
In the case of `CCCNc1ncnc2[nH]ncc12`, the TGI in the assay with ACHN renal, in the assay on DU-145 prostate, in the assay on EKVX NSCLC, in the assay with HCT-15 colon, in the assay on M14 melanoma and in the assay with MALME-3M melanoma was more than 100 µM each time. The TGI in the assay on SF-268 CNS, in the assay on SF-539 CNS, in the assay with U251 CNS and in the assay with UO-31 renal was more than 100 µM each time.
With `C(/Cc1ccc2c(c1)OCO2)=N\NC1=NCCCN1`, the TGI in the assay with ACHN renal, in the assay on DU-145 prostate, in the assay with EKVX NSCLC, with HCT-15 colon, in the assay on M14 melanoma and in the assay with MALME-3M melanoma was more than 100 µM each time. Also, the TGI in the assay with SF-268 CNS, in the assay on SF-539 CNS, in the assay on U251 CNS and in the assay on UO-31 renal was more than 100 µM throughout.
As for `CC(=O)Nc1cc(Nc2cc(=O)[nH]c(=O)[nH]2)ccc1C`, the TGI with ACHN renal, in the assay on DU-145 prostate, in the assay on EKVX NSCLC, in the assay with HCT-15 colon, in the assay on M14 melanoma and with MALME-3M melanoma was more than 100 µM in each case. The TGI in the assay on SF-268 CNS, in the assay on SF-539 CNS, in the assay with U251 CNS and in the assay on UO-31 renal was more than 100 µM throughout.
As to `Cc1ccc(/C(O)=C/c2nc3ccc([N+](=O)[O-])cc3nc2/C=C(\O)c2ccc(C)cc2)cc1`, the TGI in the assay with ACHN renal, in the assay with DU-145 prostate, in the assay on EKVX NSCLC, in the assay with HCT-15 colon, in the assay with M14 melanoma and in the assay on MALME-3M melanoma was more than 100 µM each time. The TGI in the assay on SF-268 CNS, with SF-539 CNS, in the assay on U251 CNS and in the assay with UO-31 renal was more than 100 µM throughout.
With `Cc1ccc(S(=O)(=O)n2cc(C#N)c(C#N)c2)cc1`, the TGI was 40.7 µM in the assay with ACHN renal; more than 100 µM with DU-145 prostate; more than 100 µM with EKVX NSCLC; 59 µM in the assay on HCT-15 colon; 47.7 µM in the assay with M14 melanoma; 33.9 µM in the assay on MALME-3M melanoma. Further, the TGI was 69.2 µM in the assay with SF-268 CNS, 39.9 µM in the assay on SF-539 CNS, more than 100 µM in the assay with U251 CNS and 72.2 µM in the assay with UO-31 renal.
For the compound `Cc1ccccc1OC(C)C(=O)NN1C(=O)CC(=O)N(c2ccccc2)C1=S` (stereo not given), the TGI in the assay on ACHN renal, in the assay with DU-145 prostate, in the assay with EKVX NSCLC, in the assay with HCT-15 colon, with M14 melanoma and with MALME-3M melanoma was more than 100 µM throughout. Besides, the TGI with SF-268 CNS, with SF-539 CNS, in the assay on U251 CNS and in the assay on UO-31 renal was more than 100 µM each time.
As for `C/C(=N\Nc1nc2ccccc2[nH]1)c1cc2ccccc2cn1`, the TGI in the assay on ACHN renal amounted to 0.638 µM; with DU-145 prostate, 1.91 µM; in the assay with EKVX NSCLC, 1.35 µM; with HCT-15 colon, 2.51 µM; in the assay with M14 melanoma, 0.357 µM; with MALME-3M melanoma, 0.664 µM. Further, the TGI in the assay on SF-268 CNS was found to be 1.02 µM; in the assay with SF-539 CNS, 0.764 µM; with U251 CNS, 0.863 µM; with UO-31 renal it was 1.38 µM.
For `CCOC(=O)C1CCCCN1CCc1c[nH]c2ccccc12` (stereo not given), the TGI with ACHN renal, in the assay with DU-145 prostate, with EKVX NSCLC, with HCT-15 colon, in the assay with M14 melanoma and in the assay with MALME-3M melanoma was more than 100 µM throughout. The TGI in the assay with SF-268 CNS, in the assay with SF-539 CNS, with U251 CNS and with UO-31 renal was more than 100 µM throughout.
